{"source": "patent US5045543A", "about": "“5-amino or substituted amino 1,2,3-triazoles useful as antimetastatic agents” (Merck & Co., Inc., priority 1989, dated 1991)", "key": {"[1]": {"test_system": "a number of cell types including the Normal Human Epidermal Keratinocytes", "experiment": "Antiproliferative activity (general statements)", "assay_type": "cell-based", "details": "in vitro; Compound A at the same concentrations (1 μg/ml)"}, "[2]": {"test_system": "PRPP synthetase", "experiment": "PRPP synthetase activity / PRPP biosynthesis in cell based experiments"}, "[3]": {"test_system": "Normal Human Epidermal Keratinocytes (NHEK)", "experiment": "Inhibition of growth of Normal Human Epidermal Keratinocytes (NHEK)", "assay_type": "cell-based", "details": "for inhibition at 0.5 µg/mL / inhibition at 1 µg/mL / inhibition at 2 µg/mL: Homo sapiens, NHEK", "description": "The inhibition of PRPP biosynthesis by Compound A and analogs supported the claimed use of the compounds as antiproliferative agents, since this inhibition should prevent all de novo and salvage biosynthesis of purine and pyrimidine nucleotides. […] The data from NHEK's is particularly important since it is the overproliferation of these cells that occurs in psoriasis.\nIn these experiments Murine keratinocyte transformed cell line PAPp26 was cultured in Dulbecco's modified Eagle's medium with 10% fetal calf serum at 37° C., 5% CO2. Each well of a 96 well plate was seeded with 2000 cells in 200 μl of each drug dilution in duplicate. A plate was stopped and fixed for each time point, stained with Giemsa and then read in a Titertek plate reader at 650 nm, and the absorbances were calibrated with known cell numbers on control plates. NHEK's were obtained from Clonetics Corporation at the secondary stage. Antiproliferative assays were done as for the murine keratinocytes. Media (KGM) without serum was supplied by Clonetics also. Normal Human Fibroblasts and MDBK cells were grown under the same conditions except that MDBK cells were grown at 41° C."}, "[4]": {"test_system": "macrophages", "experiment": "LTC4 and PGE2 production and lysosomal enzyme release in macrophages", "assay_type": "cell-based", "details": "1 μg/ml"}, "[5]": {"test_system": "5-lipoxygenase", "experiment": "Direct inhibition of 5-lipoxygenase", "assay_type": "biochemical"}, "[6]": {"test_system": "Maden Darby Bovine Kidney (MDBK) cells", "experiment": "3H-Hypoxanthine uptake (incorporation) into MDBK cells", "assay_type": "cell-based", "details": "1.0 μg/ml; for inhibition at 1 µg/mL: Bos taurus, MDBK", "description": "Compound A and analogs are capable of inhibiting nucleotide biosynthesis in a variety of mammalian cell types.\nConfluent cells were incubated in Eagles Minimal Essential media for 2.5 hours, then incubated with Phosphate buffered saline +Ca +Mg for 30 minutes, and then they were incubated with or without 1 μg/ml Compound A for 15 minutes. Media containing 100 μM 8-^3 H-hypoxanthine with or without drug was incubated for the time shown with the cells after which they were quenched by immersion in ice cold buffer. The DPM measurements were made on aliquots of neutralized perchloric acid supernatants."}, "[7]": {"test_system": "intact pig skin", "experiment": "Labelled thymidine incorporation into intact pig skin", "details": "in vivo"}, "[8]": {"test_system": "LTA4 hydrolase", "experiment": "Direct inhibition of LTA4 hydrolase", "assay_type": "biochemical"}, "[9]": {"test_system": "PMT-6 fibroscaroma tumors", "experiment": "Antimetastatic activity against PMT-6 fibrosarcoma tumors in mice (metastases in lung, primary tumor weight)", "assay_type": "in vivo, Black Charles River female mice (C57BL-6j)", "details": "for range of primary tumor weights: control 3.1-8.4 g; for average weight of the primary tumors: mice surviving >17 days, control 6.0 g; for Number of Metastases, size 0.01-0.1 mm: control 24; for Number of Metastases, size <0.01 mm: control 102; for Number of Metastases, size >0.01 mm: size range >0.01 mm (so in the source)", "description": "Black Charles River female mice (C57BL-6j) were injected in the flank muscle on day 1 with a cell suspension obtained from mincing PMT-6 fibroscaroma tumors. This highly metastatic tumor produces a large number of metastases in the lung during development of the primary tumor, so that the efficacy of potential antimetastatic agents can be contrasted with their ability to inhibit primary tumor growth in the same model. The mice were in 4 groups of 6 and were dosed daily with a 0.5% methylcellulose suspension of 5-amino-1-(4-[4-chlorobenzoyl]-3,5-dichlorobenzyl)-1,2,3-triazole-4-carboxamide, the active agent, given by gavage. Fresh drug suspensions were prepared daily. The doses, in 250 μL, were 0, 100, 250, and 500 mg/kg.\nThe average weights of the primary tumors retrieved from mice who survived longer than 17 days were: Control 6.0 g. (3.1-8.4 g); 100 mg/kg, 2.9 g. (2.1-5.6 g.); 250 mg/kg, 3.0 g (1.3-4.6 g.); and 500 mg/kg, 3.3 g. (2.0-6.5 g.).\nThe lungs of the mice were sectioned at intervals throughout the entire lung after fixing in 10% formalin, and the sections stained with H&E. The metastases found ranged from micrometases of just a few cells to enormous ones that could be easily seen without a microscope."}, "[10]": {"test_system": "P388 leukemia", "experiment": "Life prolongation assay, P388 leukemia in nude mice", "assay_type": "in vivo", "details": "for life prolongation: control survival 15 to 20 days", "description": "The topical antiproliferative activities, along with in vitro antiproliferative activities against human keratinocytes and fibroblasts, provide the biological data in support of the claimed utility:\nThe doses used were 240, 120 and 60 mg/kg delivered i.p. once per day for five days."}, "[11]": {"test_system": "nucleotide pools in mammalian cells", "experiment": "Inhibition of nucleotide biosynthesis: incorporation of hypoxanthine, adenine, formate into nucleotide pools of mammalian cells", "assay_type": "cell-based", "details": "1 μg/ml"}, "[12]": {"experiment": "Toxicity / genotoxicity"}}}
{"smiles": "NC(=O)c1nnn(Cc2cc(Cl)c(C(=O)c3ccc(Cl)cc3)c(Cl)c2)c1N", "note": "[Compound A, 5-amino-1-(4-(4-chlorobenzoyl)-3,5-dichlorobenzyl)-1,2,3-triazole-4-carboxamide]", "values": [{"measurement": "antiproliferative activity", "setting": "[1]", "value": "antiproliferative at the same concentrations"}, {"measurement": "PRPP synthetase activity", "setting": "[2]", "value": "dramatically lowered"}, {"measurement": "NHEK growth, ABS-background (650 nm)", "setting": "[3]; 0.5 μg/ml, day 4, control .090", "value": ".085"}, {"measurement": "NHEK growth, ABS-background (650 nm)", "setting": "[3]; 0.5 μg/ml, day 5, control .190", "value": ".115"}, {"measurement": "NHEK growth, ABS-background (650 nm)", "setting": "[3]; 0.5 μg/ml, day 7, control .390", "value": ".190"}, {"measurement": "NHEK growth, ABS-background (650 nm)", "setting": "[3]; 1.0 μg/ml, day 4, control .090", "value": ".040"}, {"measurement": "NHEK growth, ABS-background (650 nm)", "setting": "[3]; 1.0 μg/ml, day 5, control .190", "value": ".050"}, {"measurement": "NHEK growth, ABS-background (650 nm)", "setting": "[3]; 1.0 μg/ml, day 7, control .390", "value": ".120"}, {"measurement": "NHEK growth, ABS-background (650 nm)", "setting": "[3]; 2.0 μg/ml, day 4, control .090", "value": ".005"}, {"measurement": "NHEK growth, ABS-background (650 nm)", "setting": "[3]; 2.0 μg/ml, day 5, control .190", "value": ".010"}, {"measurement": "NHEK growth, ABS-background (650 nm)", "setting": "[3]; 2.0 μg/ml, day 7, control .390", "value": ".050"}, {"measurement": "inhibition at 0.5 µg/mL", "setting": "[3]; 96 h, 0.5 μg/ml, day 4", "value": 6, "unit": "%"}, {"measurement": "inhibition at 1 µg/mL", "setting": "[3]; 96 h, 1.0 μg/ml, day 4", "value": 56, "unit": "%"}, {"measurement": "inhibition at 2 µg/mL", "setting": "[3]; 96 h, 2.0 μg/ml, day 4", "value": 94, "unit": "%"}, {"measurement": "inhibition at 0.5 µg/mL", "setting": "[3]; 120 h, 0.5 μg/ml, day 5", "value": 40, "unit": "%"}, {"measurement": "inhibition at 1 µg/mL", "setting": "[3]; 120 h, 1.0 μg/ml, day 5", "value": 74, "unit": "%"}, {"measurement": "inhibition at 2 µg/mL", "setting": "[3]; 120 h, 2.0 μg/ml, day 5", "value": 95, "unit": "%"}, {"measurement": "inhibition at 0.5 µg/mL", "setting": "[3]; 168 h, 0.5 μg/ml, day 7", "value": 51, "unit": "%"}, {"measurement": "inhibition at 1 µg/mL", "setting": "[3]; 168 h, 1.0 μg/ml, day 7", "value": 70, "unit": "%"}, {"measurement": "inhibition at 2 µg/mL", "setting": "[3]; 168 h, 2.0 μg/ml, day 7", "value": 87, "unit": "%"}, {"measurement": "inhibition of growth of NHEK", "setting": "[3]; approximately 1.0 μg/ml", "value": "substantial inhibition"}, {"measurement": "inhibition of LTC4 production", "setting": "[4]", "value": "inhibit"}, {"measurement": "inhibition of PGE2 production", "setting": "[4]", "value": "inhibit"}, {"measurement": "inhibition of lysosomal enzyme release", "setting": "[4]", "value": "inhibit"}, {"measurement": "direct inhibition of 5-lipoxygenase", "setting": "[5]", "value": "no evidence of direct inhibition"}, {"measurement": "3H-hypoxanthine incorporation into MDBK cells", "setting": "[6]; Eagles Minimal Essential media", "value": "substantially reduced"}, {"measurement": "3H-Hypoxanthine Uptake, DPM", "setting": "[6]; 10 min, control 87000", "value": 36000, "unit": "DPM"}, {"measurement": "3H-Hypoxanthine Uptake, DPM", "setting": "[6]; 20 min, control 140000", "value": 40000, "unit": "DPM"}, {"measurement": "3H-Hypoxanthine Uptake, DPM", "setting": "[6]; 30 min, control 190000", "value": 40000, "unit": "DPM"}, {"measurement": "inhibition at 1 µg/mL", "setting": "[6]; 10 min", "value": 59, "unit": "%"}, {"measurement": "inhibition at 1 µg/mL", "setting": "[6]; 20 min", "value": 71, "unit": "%"}, {"measurement": "inhibition at 1 µg/mL", "setting": "[6]; 30 min", "value": 79, "unit": "%"}, {"measurement": "inhibition of labelled thymidine incorporation into intact pig skin", "setting": "[7]", "value": "inhibits"}, {"measurement": "direct inhibition of LTA4 hydrolase", "setting": "[8]", "value": "no evidence of direct inhibition"}, {"measurement": "range of primary tumor weights", "setting": "[9]; 100 mg/kg by gavage daily", "value": "2.1 to 5.6", "unit": "g"}, {"measurement": "average weight of the primary tumors", "setting": "[9]; 100 mg/kg by gavage daily", "value": 2.9, "unit": "g"}, {"measurement": "range of primary tumor weights", "setting": "[9]; 250 mg/kg by gavage daily", "value": "1.3 to 4.6", "unit": "g"}, {"measurement": "average weight of the primary tumors", "setting": "[9]; 250 mg/kg by gavage daily", "value": 3.0, "unit": "g"}, {"measurement": "range of primary tumor weights", "setting": "[9]; 500 mg/kg by gavage daily", "value": "2.0 to 6.5", "unit": "g"}, {"measurement": "average weight of the primary tumors", "setting": "[9]; 500 mg/kg by gavage daily", "value": 3.3, "unit": "g"}, {"measurement": "effect on the primary tumor", "setting": "[9]; 100, 250, 500 mg/kg by gavage", "value": "there may be a small effect of the drug on the primary tumor"}, {"measurement": "effect on number of lung metastases", "setting": "[9]; at even the lowest dose (100 mg/kg/d oral)", "value": "a large drop in the number of metastases at even the lowest dose"}, {"measurement": "antimetastatic activity", "setting": "[9]; mouse, in vivo", "value": "has exhibited such antimetastatic activity"}, {"measurement": "Number of Metastases, size 0.01-0.1 mm", "setting": "[9]; oral 100 mg/kg/d", "value": 0}, {"measurement": "Number of Metastases, size <0.01 mm", "setting": "[9]; oral 100 mg/kg/d", "value": 6}, {"measurement": "Number of Metastases, size >0.01 mm", "setting": "[9]; oral 100 mg/kg/d", "value": 0}, {"measurement": "Number of Metastases, size 0.01-0.1 mm", "setting": "[9]; oral 250 mg/kg/d", "value": 3}, {"measurement": "Number of Metastases, size <0.01 mm", "setting": "[9]; oral 250 mg/kg/d", "value": 9}, {"measurement": "Number of Metastases, size >0.01 mm", "setting": "[9]; oral 250 mg/kg/d", "value": 0}, {"measurement": "Number of Metastases, size 0.01-0.1 mm", "setting": "[9]; oral 500 mg/kg/d", "value": 3}, {"measurement": "Number of Metastases, size <0.01 mm", "setting": "[9]; oral 500 mg/kg/d", "value": 6}, {"measurement": "Number of Metastases, size >0.01 mm", "setting": "[9]; oral 500 mg/kg/d", "value": 1}, {"measurement": "life prolongation", "setting": "[10]; 60 mg/kg i.p. once per day for five days", "value": 127, "unit": "%"}, {"measurement": "life prolongation", "setting": "[10]; 120 mg/kg i.p. once per day for five days", "value": 124, "unit": "%"}, {"measurement": "life prolongation", "setting": "[10]; 240 mg/kg i.p. once per day for five days", "value": 134, "unit": "%"}, {"measurement": "in vivo activity against P388 leukemia", "setting": "[10]; 240, 120, 60 mg/kg i.p.", "value": "significant in vivo activity"}, {"measurement": "minimal effective dose", "setting": "[10]; Mus musculus, ip, P388 leukemia, nude mice, read-out: active dose in life prolongation assay", "value": "≥ 60", "unit": "mg/kg/day"}, {"measurement": "adenine incorporation into nucleotide pools", "setting": "[11]; mammalian cells", "value": "disrupted"}, {"measurement": "formate incorporation into nucleotide pools", "setting": "[11]; mammalian cells", "value": "disrupted"}, {"measurement": "hypoxanthine incorporation into nucleotide pools", "setting": "[11]; mammalian cells", "value": "disrupted"}, {"measurement": "inhibition of nucleotide biosynthesis", "setting": "[11]; variety of mammalian cells in monolayer culture", "value": "efficacy"}, {"measurement": "genotoxicity", "setting": "[12]", "value": "lack of toxicity or genotoxicity"}, {"measurement": "toxicity", "setting": "[12]", "value": "lack of toxicity or genotoxicity"}]}
